Assay [1] deals with rats with puromycin aminonucleoside-induced kidney injury (focal segmental glomerulosclerosis model rats). Kind of assay: Test Example 3: action of Compound 011 in PAN-treated rats with more severe symptoms for a longer period. In kind it is in vivo, S.D. rats. The procedure:
The action of Compound 011 on PAN-treated rats with more severe symptoms for a longer period of time than in Test Example 1 was studied. Eight-week-old S.D. rats (male, 8 rats) were intraperitoneally injected with 120 mg/kg of puromycin aminonucleoside (PAN) under anesthesia. Then, one month later, PAN was again injected intraperitoneally at 60 mg/kg. PAN creates focal segmental glomerulosclerosis model rats by disrupting glomerular basement membrane cells (podocytes) (Kim, J Mol Med, 2018, 96, 631-644). Furthermore, these model rats are known to develop chronic kidney damage accompanied by lymphocyte and macrophage infiltration (Ornellas, Sci Rep, 2019, 9:19604). The test compound (Compound 011) was mixed with food and administered (10 mg/kg/day) on or after the third day after the PAN injection. The rats were kept under a 12-hour light-dark cycle (lights on from 7:00 am to 7:00 pm, and lights off from 7:00 pm to 7:00 am the next morning), and food and water were provided ad libitum (PAN+011 group). Chronic proteinuria may sometimes occur after the first administration of PAN without a second administration of PAN. […] Two months after the first administration of PAN, the kidneys of the rats were removed, their sizes were visually observed, and their weights were measured. The number of kidney samples was 4 for the PAN group and was 6 for the PAN+011 group. Subsequently, the kidneys were fixed with 4% paraformaldehyde/PBS and then paraffin-embedded, and sections were prepared. The sections were treated with PAS (periodic acid-Schiff) staining, and PAS-stained positive areas (inflammatory cell areas) were evaluated. To extract RNA, a portion of tissue around the surface layer of the kidney was quickly frozen to −80° C. cDNA was produced from RNA extracted from the tissue by reverse transcriptase, and gene expression was evaluated by real-time PCR. TB Green Premix Ex Taq II (Takara Bio Inc.) was used as a reagent for the reaction, and a QuantStudio 5 system (Thermo Fisher) was used for the analysis.

For assay [2], the system named is rats with puromycin aminonucleoside-induced kidney injury (focal segmental glomerulosclerosis / minimal change nephrotic syndrome model rats). Kind of assay: Test Example 1: action of Compound 011 in rats with puromycin aminonucleoside-induced kidney injury. In kind it is in vivo, S.D. rats. Particulars: for urinary protein levels lower compared with PAN group: Bradford method. The procedure: Eight-week-old S.D. rats (male, 8 rats) were intraperitoneally injected with 120 mg/kg of puromycin aminonucleoside (PAN) under anesthesia (day 0). PAN damages glomerular basement membrane cells (podocytes) and induces glomerular injury in rats. The PAN-treated rats were focal segmental glomerulosclerosis model rats and minimal change nephrotic syndrome model rats. The test compound (Compound 011) was mixed with food and administered (10 mg/kg/day) on or after the third day after the PAN injection. The rats were kept under a 12-hour light-dark cycle (lights on from 7:00 am to 7:00 pm, and lights off from 7:00 pm to 7:00 am the next morning), and food and water were provided ad libitum (PAN+011 group). Urine was collected on day 0, i.e., the day of PAN administration, and on days 3, 10, 20, and 27 after PAN administration. Urine was collected by placing the rats in metabolic cages for 17 hours (5:00 pm to 10:00 am the next morning). Separately, as controls, a group without PAN treatment and without test compound administration (control group, male, 3 animals), a group without PAN treatment but with test compound administration (control+011 group, male, 5 animals), and a group with PAN treatment but without test compound administration (PAN group, male, 9 animals) were also tested in the same manner. The urinary protein levels were measured by using the Bradford method. The serum albumin levels were measured by using an improved BCP (bromocresol purple) method. In the PAN group, the number of serum samples was 8 because one animal from which a serum sample was unable to be collected was excluded. On day 27 after PAN administration, the left kidney of each rat was removed, the size was visually observed, and the weight was measured. The number of left kidney samples of the control group was 3 because the left kidneys of three animals in this group were all removed and weighed. The number of left kidney samples of the control+011 group was 4 because the left kidneys of 4 of the 5 animals in this group were removed and weighed. The number of left kidney samples of the PAN group was 7 because the left kidneys of 7 of the 9 animals in this group were removed and weighed. The number of left kidney samples of the PAN+011 group was 7 because the left kidneys of 7 of the 8 animals in this group were removed and weighed.

[3] abbreviates: PAN+011 group vs PAN group, two months after PAN.
[4] abbreviates: PAN+011 group, after 2 months, 10 mg/kg/day mixed with food, *p<0.03.

Each structure is given as a SMILES string.

Regarding `O=C(O)c1cnc(N2CCN(c3noc4cccc(C(F)(F)F)c34)CC2)c(Cl)c1` [Compound 011, 5-Chloro-6-(4-(4-(trifluoromethyl)benzo[d]isoxazol-3-yl)piperazin-1-yl)nicotinic acid], in assay [1] (setting [3]), the “CD4 expression level in kidney tissue (quantitative PCR, relative to GAPDH)” value was “significantly decreased”; the “CD86 expression level in kidney tissue (quantitative PCR, relative to GAPDH)” value was “significantly decreased”; the “TGF-β expression level in kidney tissue (quantitative PCR, relative to GAPDH)” value was “significantly decreased”. For the same compound, in assay [1] (setting [4]), the “left kidney weight per rat body weight, decrease compared with PAN group” value is recorded as 29% and the “right kidney weight, decrease compared with PAN group” value amounted to 28%. Also, in assay [1] (kidney sections two months after PAN, on average), the “suppression of formation of tertiary lymphoid tissue-like structures (PAS-stained positive area)” value is reported as no less than 50%. Besides, the “urinary protein levels lower compared with PAN group” value in assay [2] (PAN+011 group vs PAN group, day 10 after PAN, 10 mg/kg/day mixed with food) is listed as 38%. Moreover, the serum albumin levels result in assay [2] (PAN+011 group vs PAN group, day 27, improved BCP method, **p<0.01) is given as “almost no PAN-treatment-induced decrease in serum albumin levels”. The “left kidney weight per rat body weight” value in assay [2] (PAN+011 group vs PAN group, day 27 after PAN) is on record as “smaller increase in kidney weights”. Moreover, the “urinary protein levels lower compared with PAN group” value in assay [2] (PAN+011 group vs PAN group, day 27 after PAN, 10 mg/kg/day mixed with food) was 48%. In addition, in assay [2] (rats without PAN treatment, 10 mg/kg/day mixed with food), the “urinary protein levels, control+011 group vs control group” value is “No difference”.

(Values after patent US20250170116A1, “PHARMACEUTICAL COMPOSITION FOR PREVENTING AND/OR TREATING RENAL DISEASE” (priority 2022, published 2025).)
